Calls of active or inactive are those of the source. No cut-off for these calls is given here.
Tests used:
HCT-116 = assay: Antiproliferative activity against human HCT116 cells assessed as reduction in cell viability incubated for 72 hrs by CCK8 assay; format: functional, cell-based; settings: HCT-116, 72 h
A549 = assay: Antiproliferative activity against human A549 cells assessed as reduction in cell viability incubated for 72 hrs by CCK8 assay; format: functional, cell-based; settings: A549, 72 h
MDA-MB-435 = assay: Antiproliferative activity against human MDA-MB-435 cells assessed as reduction in cell viability incubated for 72 hrs by CCK8 assay; format: functional, cell-based; settings: MDA-MB-435, 72 h
[1] = target: DNA topoisomerase 2-alpha (Homo sapiens) (UniProt P11388); assay: Inhibition of human Top2alpha assessed as decrease in relaxation of supercoiled pBR322 plasmid DNA at 100 uM using supercoiled pBR322 plasmid DNA as substrate incubated for 30 mins by agarose gel electrophoresis analysis
DNA topoisomerase 2-alpha (Homo sapiens), sequence (P11388 whole entry): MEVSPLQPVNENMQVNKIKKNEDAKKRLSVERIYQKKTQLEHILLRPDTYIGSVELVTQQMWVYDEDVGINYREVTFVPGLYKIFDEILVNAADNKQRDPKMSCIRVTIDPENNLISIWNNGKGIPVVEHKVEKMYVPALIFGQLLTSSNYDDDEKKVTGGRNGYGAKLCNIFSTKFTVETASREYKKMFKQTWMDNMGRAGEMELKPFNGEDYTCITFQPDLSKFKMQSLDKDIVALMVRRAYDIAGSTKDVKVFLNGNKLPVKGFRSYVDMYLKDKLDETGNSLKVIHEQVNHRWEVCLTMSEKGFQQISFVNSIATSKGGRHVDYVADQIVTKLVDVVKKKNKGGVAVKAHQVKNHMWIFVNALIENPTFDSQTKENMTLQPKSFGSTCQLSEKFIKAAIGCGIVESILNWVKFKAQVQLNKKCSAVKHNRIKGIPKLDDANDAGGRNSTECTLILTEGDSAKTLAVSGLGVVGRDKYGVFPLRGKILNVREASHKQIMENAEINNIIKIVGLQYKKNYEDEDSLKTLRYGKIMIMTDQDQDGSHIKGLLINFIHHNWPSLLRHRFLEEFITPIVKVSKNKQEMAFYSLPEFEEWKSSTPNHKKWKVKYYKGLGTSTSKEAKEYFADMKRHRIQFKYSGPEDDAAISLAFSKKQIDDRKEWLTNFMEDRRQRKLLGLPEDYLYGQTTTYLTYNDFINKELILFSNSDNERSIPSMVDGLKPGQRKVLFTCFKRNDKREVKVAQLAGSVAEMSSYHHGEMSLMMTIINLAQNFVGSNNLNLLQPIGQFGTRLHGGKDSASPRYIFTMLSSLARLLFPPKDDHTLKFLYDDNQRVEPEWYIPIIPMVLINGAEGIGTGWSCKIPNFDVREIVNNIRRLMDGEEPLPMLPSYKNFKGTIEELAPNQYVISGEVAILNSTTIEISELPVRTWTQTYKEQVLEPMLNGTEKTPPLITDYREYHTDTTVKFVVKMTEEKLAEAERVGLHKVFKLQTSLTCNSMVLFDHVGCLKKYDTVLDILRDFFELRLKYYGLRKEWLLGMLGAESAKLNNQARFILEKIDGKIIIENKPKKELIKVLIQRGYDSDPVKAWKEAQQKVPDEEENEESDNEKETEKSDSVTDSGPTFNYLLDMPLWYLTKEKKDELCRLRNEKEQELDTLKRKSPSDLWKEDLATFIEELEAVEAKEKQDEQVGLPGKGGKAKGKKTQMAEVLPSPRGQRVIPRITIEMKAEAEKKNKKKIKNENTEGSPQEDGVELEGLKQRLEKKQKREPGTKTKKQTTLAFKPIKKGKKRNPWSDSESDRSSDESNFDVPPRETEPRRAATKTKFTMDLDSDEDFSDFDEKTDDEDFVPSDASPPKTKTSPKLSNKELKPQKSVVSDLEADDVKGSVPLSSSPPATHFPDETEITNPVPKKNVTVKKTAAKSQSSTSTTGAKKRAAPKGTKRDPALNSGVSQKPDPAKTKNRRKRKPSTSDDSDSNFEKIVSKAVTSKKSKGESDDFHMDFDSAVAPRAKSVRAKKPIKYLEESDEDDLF

[2] = target: T1, DNA topoisomerase 1 (Escherichia coli (strain K12)) (UniProt P06612); assay: Inhibition of Escherichia coli Top1 assessed as decrease in relaxation of supercoiled pBR322 plasmid DNA at 100 uM using supercoiled pBR322 plasmid DNA as substrate incubated for 15 mins by agarose gel electrophoresis analysis
T1 sequence (whole entry): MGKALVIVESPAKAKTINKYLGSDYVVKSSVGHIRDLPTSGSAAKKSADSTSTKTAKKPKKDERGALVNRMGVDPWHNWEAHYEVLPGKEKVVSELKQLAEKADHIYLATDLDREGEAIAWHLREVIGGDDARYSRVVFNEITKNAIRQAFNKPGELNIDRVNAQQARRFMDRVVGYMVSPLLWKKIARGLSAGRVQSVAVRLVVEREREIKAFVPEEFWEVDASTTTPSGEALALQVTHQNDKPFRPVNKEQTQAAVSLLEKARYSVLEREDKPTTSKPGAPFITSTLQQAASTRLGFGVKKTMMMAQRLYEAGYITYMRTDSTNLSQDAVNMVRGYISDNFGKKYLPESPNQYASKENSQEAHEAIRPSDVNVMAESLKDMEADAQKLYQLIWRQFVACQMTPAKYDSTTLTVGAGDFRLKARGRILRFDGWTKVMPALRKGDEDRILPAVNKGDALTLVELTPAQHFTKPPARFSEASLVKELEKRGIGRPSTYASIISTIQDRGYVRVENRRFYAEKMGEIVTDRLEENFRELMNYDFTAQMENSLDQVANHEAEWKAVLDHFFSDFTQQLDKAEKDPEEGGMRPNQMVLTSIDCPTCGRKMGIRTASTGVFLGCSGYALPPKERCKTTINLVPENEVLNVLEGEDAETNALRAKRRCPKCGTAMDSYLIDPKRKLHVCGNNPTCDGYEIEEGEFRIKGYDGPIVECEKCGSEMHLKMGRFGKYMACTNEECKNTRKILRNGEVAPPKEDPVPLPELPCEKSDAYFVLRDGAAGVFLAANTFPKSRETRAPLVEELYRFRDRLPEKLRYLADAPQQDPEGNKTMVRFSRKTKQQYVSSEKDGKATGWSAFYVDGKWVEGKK

Row | SMILES | IC50 (HCT-116) [µM] | IC50 (A549) [µM] | IC50 (MDA-MB-435) [µM] | inhibition [1] | inhibition [2]
1 | COc1ccc2c(c1)N(C)C1c3cc4cc(OC)ccc4n3CCN1C2=O (stereo unspecified) | 180 | 30.8 | > 200 |  | 
2 | COc1ccc2c(c1)c(CO)c1n2CCN2C(=O)c3cc(F)ccc3N(C)C12 (stereo unspecified) | 5.6 | 6.6 | 22.8 |  | 
3 | COc1ccc2c(c1)cc1n2CCN2C(=O)c3cc(Br)ccc3N(C)C12 (stereo unspecified) | > 200 | > 200 | > 200 |  | 
4 | CN1c2ccc(F)cc2C(=O)N2CCn3c(cc4cc(Br)ccc43)C21 (stereo unspecified) | 28.5 | > 200 | 97.6 |  | 
5 | CN1c2ccc(F)cc2C(=O)N2CCn3c(cc4cc(OC5CCCCC5)ccc43)C21 (stereo unspecified) | 66.8 | 174 | 50.1 |  | 
6 | CN1c2ccccc2C(=O)N2CCn3c(cc4ccccc43)C21 (stereo unspecified) | 47.5 to 48.5 | 21.5 | > 200 | inactive | Active
7 | COc1ccc2c(c1)cc1n2CCCN2C(=O)c3ccccc3N(C)C12 (stereo unspecified) | 56 | 32 | 196 |  | 
8 | COc1ccc2c(c1)c(CN1CCN(C)CC1)c1n2CCN2C(=O)c3cc(F)ccc3N(C)C12 (stereo unspecified) | 5.5 | 32.9 | 5.82 |  | 
9 | CSc1ccc2cc3n(c2c1)CCN1C(=O)c2cc(F)ccc2N(C)C31 (stereo unspecified) | 9.4 | 8.3 | 85.8 |  | 
10 | Cc1ccc2c(c1)cc1n2CCN2C(=O)c3ccccc3N(C)C12 (stereo unspecified) | 0.03 | > 200 | 13.3 | inactive | Active
11 | CN1c2ccc(F)cc2C(=O)N2CCn3c(cc4cc(OC5CCC5)ccc43)C21 (stereo unspecified) | 34.1 | 98.5 | > 200 |  | 
12 | CN1c2ccccc2C(=O)N2CCn3c(cc4cc(F)ccc43)C21 (stereo unspecified) | > 200 | > 200 | > 200 |  | 
13 | COc1ccc2c(c1)c(C=O)c1n2CCN2C(=O)c3cc(C)ccc3N(C)C12 (stereo unspecified) | 18.1 | > 200 | 70.5 |  | 
14 | CN1c2ccccc2C(=S)N2CCn3c(cc4cc(F)ccc43)C21 (stereo unspecified) | > 200 | > 200 | > 200 |  | 
15 | COc1ccc2c(c1)c(CO)c1n2CCN2C(=O)c3cc(C)ccc3N(C)C12 (stereo unspecified) | 5.8 | 72.1 | 41.5 |  | 
16 | CN1c2ccc(F)cc2C(=O)N2CCn3c(cc4cc(OC5CCCC5)ccc43)C21 (stereo unspecified) | 57.9 | > 200 | > 200 |  | 
17 | COc1ccc2c(c1)c(C)c1n2CCN2C(=O)c3cc(F)ccc3N(C)C12 (stereo unspecified) | 21.9 | 13.2 | 132 |  | 
18 | COc1ccc2c(c1)cc1n2C(C)(C)CN2C(=O)c3cc(F)ccc3N(C)C12 (stereo unspecified) | 1.5 | > 200 | 10.7 |  | 
19 | COc1ccc2c(c1)cc1n2CCN2C(=O)c3cc(Cl)ccc3N(C)C12 (stereo unspecified) | 61.3 | > 200 | > 200 |  | 
20 | CN1c2ccn(C)c2C(=O)N2CCn3c(cc4cc(O)ccc43)C21 (stereo unspecified) | > 200 | > 200 | > 200 |  | 
21 | COc1ccc2c(c1)cc1n2CCN2C(=O)c3cc(C)ccc3N(C)C12 (stereo unspecified) | 19.4 | > 200 | > 200 |  | 
22 | COc1ccc2c(c1)cc1n2CCN2C(=O)c3cc(N)ccc3N(C)C12 (stereo unspecified) | > 200 | > 200 | > 200 |  | 

Row | SMILES | IC50 (HCT-116) [µM] | IC50 (A549) [µM] | IC50 (MDA-MB-435) [µM] | inhibition [1] | inhibition [2]
23 | COc1ccc2c(c1)cc1n2CCN2C(=O)c3sccc3N(C)C12 (stereo unspecified) | 9.5 | 47 | 44.6 |  | 
24 | CN1c2ccccc2C(=O)N2CCc3c([nH]c4ccccc34)[C@H]21 | > 200 | > 200 | 22.1 |  | 
25 | COc1ccc2c(c1)cc1n2CCN2C(=O)c3cc(OC)c(OC)cc3N(C)C12 (stereo unspecified) | > 121 | > 200 | 23.8 |  | 
26 | COc1ccc2c(c1)cc1n2CCN2C(=O)c3c(ccn3C)N(C)C12 (stereo unspecified) | 190 | > 200 | > 200 |  | 
27 | Cc1ccc2c(c1)cc1n2CCN2C(=O)c3cc(F)ccc3N(C)C12 (stereo unspecified) | 0.06 | 22.8 | 1 |  | 
28 | COc1cc2cc3n(c2c(OC)c1OC)CCN1C(=O)c2ccccc2N(C)C31 (stereo unspecified) | > 200 | > 200 | > 200 |  | 
29 | CN1c2ccccc2C(=O)N2CCCn3c(cc4cc(O)ccc43)C21 (stereo unspecified) | > 200 | 111 | > 200 |  | 
30 | COc1ccc2c(c1)c(C=O)c1n2CCN2C(=O)c3cc(F)ccc3N(C)C12 (stereo unspecified) | > 200 | 59.2 | > 200 |  | 
31 | CN1c2ccccc2C(=O)N2CCn3c(cc4cc(Br)ccc43)C21 (stereo unspecified) | 7.3 | 15.2 | 15.9 |  | 
32 | [2H]C([2H])([2H])Oc1ccc2c(c1)cc1n2CCN2C(=O)c3cc(F)ccc3N(C)C12 (stereo unspecified) | 0.01 | 31.3 | 11.4 |  | 
33 | CN1c2ccccc2C(=O)N2CCn3c(cc4cc(O)ccc43)C21 (stereo unspecified) | 44.3 | 14.5 | 16.8 |  | 
34 | CN1c2ccc(F)cc2C(=O)N2CCn3c(cc4cc(Cl)ccc43)C21 (stereo unspecified) | 6.7 | 53 | 143 |  | 
35 | CN1c2ccccc2C(=O)N2CCn3c(cc4ccc(Cl)cc43)C21 (stereo unspecified) | > 200 | > 200 | > 200 |  | 
36 | CN1c2ccsc2C(=O)N2CCn3c(cc4cc(O)ccc43)C21 (stereo unspecified) | 106 | 30.3 | 66.8 |  | 
37 | COc1ccc2c(c1)cc1n2C(C)(C)CN2C(=O)c3ccccc3N(C)C12 (stereo unspecified) | 6.2 | 181 | 86.4 |  | 
38 | COc1ccc2c(c1)N(C)C1c3cc4ccccc4n3CCN1C2=O (stereo unspecified) | 124 | 24.3 | > 200 |  | 
39 | COc1ccc2c(c1)N(C)C1c3cc4cc(Br)ccc4n3CCN1C2=O (stereo unspecified) | > 200 | > 200 | > 200 |  | 
40 | Cc1ccc2c(c1)c(Br)c1n2CCN2C(=O)c3ccccc3N(C)C12 (stereo unspecified) | 3.3 | 14.1 | 12.3 |  | 
41 | COc1ccc2c(c1)cc1n2CCN2C(=O)c3ccccc3N(C)C12 (stereo unspecified) | 12 | 2.7 | 20.2 |  | 
42 | COc1ccc2c(c1)c(Br)c1n2CCN2C(=O)c3cc(F)ccc3N(C)C12 (stereo unspecified) | 9.2 | 12.3 | 89.1 |  | 
43 | CN1c2ccc(F)cc2C(=O)N2CCn3c(cc4cc(OC(F)(F)F)ccc43)C21 (stereo unspecified) | 0.83 | 95.5 | > 200 |  | 
44 | COc1ccc2c(c1)C(=O)N1CCn3c(cc4ccccc43)C1N2C (stereo unspecified) | 49.2 | 15.6 | 168 |  | 
